The text below walks through data of the supplement of paper PMC10307832.

Common to all, as to assay: relative viability (nuclei count vs DMSO), 5 days (fraction); higher = more cells survive
Compound in test [1]: COc1cc2nccc(Oc3ccc(NC(=O)C4(C(=O)Nc5ccc(F)cc5)CC4)cc3)c2cc1OC [Cabozantinib] + CC(=O)Nc1cccc(-n2c(=O)n(C3CC3)c(=O)c3c(Nc4ccc(I)cc4F)n(C)c(=O)c(C)c32)c1 [Trametinib] (partner 0.02 µM)
In outline:
(§1)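 Lung cancer cell lines, seeded in 1536-well plates, were treated the following day by pin tool with a single drug or with five library-drug doses (not always all listed) in √10 steps on top of a fixed anchor-drug dose. Cells were fixed and nuclei stained in one step after 5 days, and nuclei were counted. Relative viability is the nuclei count for treated wells divided by that for vehicle wells, reported as medians of duplicate plates.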

Compound in the test “Zosuquidar + Olaparib”: O[C@@H](COc1cccc2ncccc12)CN1CCN([C@@H]2c3ccccc3[C@@H]3[C@H](c4ccccc42)C3(F)F)CC1 [Zosuquidar] + O=C(c1cc(Cc2n[nH]c(=O)c3ccccc23)ccc1F)N1CCN(C(=O)C2CC2)CC1 [Olaparib] (partner 8 µM)
In outline: as §1

Compound in the test “Zosuquidar + Navitoclax”: O[C@@H](COc1cccc2ncccc12)CN1CCN([C@@H]2c3ccccc3[C@@H]3[C@H](c4ccccc42)C3(F)F)CC1 [Zosuquidar] + CC1(C)CCC(c2ccc(Cl)cc2)=C(CN2CCN(c3ccc(C(=O)NS(=O)(=O)c4ccc(N[C@H](CCN5CCOCC5)CSc5ccccc5)c(S(=O)(=O)C(F)(F)F)c4)cc3)CC2)C1 [Navitoclax] (partner 0.5 µM)
In short, it runs like this:
as §1

Compound in the test “Kobe2602 + OSI-027”: C1=CC(=CC=C1NC(=S)NNC2=C(C=C(C=C2[N+](=O)[O-])C(F)(F)F)[N+](=O)[O-])F [Kobe2602] + COc1cccc2cc(-c3nc([C@H]4CC[C@H](C(=O)O)CC4)n4ncnc(N)c34)[nH]c12 [OSI-027] (partner 0.5 µM)
In short, it runs like this:
as §1

In the case of UMC-11, the relative viability in test [1] (first compound 0.02 µM) was 0.666; in test [1] (first compound 0.06325 µM) it was 0.808; in test [1] (first compound 0.2 µM) it was 0.782; in test [1] (first compound 0.6325 µM), 0.548; in test [1] (first compound 2 µM), 0.69; with Zosuquidar + Olaparib (first compound 0.01 µM), 0.505. For the same cell line, the relative viability with Zosuquidar + Olaparib (first compound 0.03162 µM) amounted to 0.38; in the test with Zosuquidar + Olaparib (first compound 0.1 µM), 0.413; in the test with Zosuquidar + Olaparib (first compound 0.3162 µM) it was 0.385; with Zosuquidar + Olaparib (first compound 1 µM), 0.34; in the test with Zosuquidar + Navitoclax (first compound 0.01 µM) it was 0.323; with Zosuquidar + Navitoclax (first compound 0.03162 µM) it was 0.294. The relative viability with Zosuquidar + Navitoclax (first compound 0.1 µM) was 0.341; with Zosuquidar + Navitoclax (first compound 0.3162 µM) it was 0.339; with Zosuquidar + Navitoclax (first compound 1 µM), 0.292; with Kobe2602 + OSI-027 (first compound 0.2 µM), 0.461; with Kobe2602 + OSI-027 (first compound 0.6325 µM) it was 0.537; with Kobe2602 + OSI-027 (first compound 2 µM) it was 0.539. The figures for the relative viability with Kobe2602 + OSI-027 (first compound 6.325 µM) and with Kobe2602 + OSI-027 (first compound 20 µM) were 0.459 and 0.467, respectively.
